We go through 13 molecules from patent publication US9260415B2, “Heteroaryl pyridone and aza-pyridone compounds with electrophilic functionality” (Genentech, Inc., priority 2013, dated 2016).

The target in this test is BTK (Homo sapiens (Human), UniProt Q06187). In words: BTK LC3K biochemical assay (LabChip 3000 mobility shift). As to the method:
Formula I compounds were tested by biochemical Btk, Kinase assays (Example 901).
Alternatively, an in vitro BTK biochemical assay that quantifies BTK-catalyzed tyrosine phosphorylation of a synthetic peptide, as detected using a LabChip 3000® microfluidic mobility shift instrument (PerkinElmer; Waltham, Mass.) can be conducted. The substrate peptide, ProfilerPro® FL-Peptide 22 (Product No. 760366; PerkinElmer), has an amino-terminal fluorescent 5-carboxyfluorescein group (5-FAM) and a tyrosine residue that can be phosphorylated by BTK: 5-FAM-[…]-NH2. Purified recombinant human full-length catalytically active BTK protein was obtained from Carna Biosciences (Product No. 08-080; Kobe, Japan).
BTK assay mixtures contained 50 mM 4-(2-hydroxyethyl)-1-piperazineethanesulfonic acid buffer (pH 7.5), 10 mM magnesium chloride, 0.01% Triton X-100, 1 mM dithiothreitol, 1 μM FL-Peptide 22, 45 μM ATP, 1 nM BTK, and a titration of up to 10,000 nM test article in a final concentration of 0.5% (volume to volume [v/v]) DMSO. In the titration experiments, each of the test article concentrations (10 or 12 concentrations) was tested in duplicate. Blank reactions contained ATP, peptide, and DMSO, but no BTK or test article, whereas uninhibited control reactions contained ATP, peptide, BTK, and DMSO, but no test article.
Reactions were incubated for 30 minutes at room temperature (22° C.-23° C.) in a final volume of 20 μL per well in 384-well plates. Ten microliters of BTK plus peptide mixture were added to 10 μL of a mixture of ATP and test article (or vehicle) to initiate the reactions. Reactions were stopped by adding 10 μL of 0.25 M ethylenediaminetetraacetic acid (EDTA) at pH 8.0 to each well. In each reaction, the residual FL-Peptide 22 substrate (S) and the phospho-peptide product (P) generated were separated using the LabChip 3000 instrument. Electrophoretic separation of molecules of product from molecules of substrate was achieved using downstream and upstream voltages of −500 and −2250 V, respectively, at an operating pressure of −1 psi. The 5-FAM group present on both the substrate and product peptides was excited at 488 nm; the fluorescence at 530 nm was detected and the peak heights were reported.
Data Analysis: The extent (or percent) of conversion of substrate to product was calculated from the corresponding peak heights in the electropherogram using HTS Well Analyzer software, version 5.2 (PerkinElmer) and the following equation: conversion=[(P)÷(S+P)]×100 where S and P represent the peak heights of the substrate and product, respectively. After any baseline signal from blank wells containing no BTK was subtracted from the signal of all test wells, the % conversion data were converted to fractional activity as shown in Equation 2, where vi and vo are the % conversion in the presence and absence, respectively, of test article. The % conversion observed in the uninhibited control reaction wells containing BTK and DMSO vehicle, but no test article, was defined to have fractional activity=1 (in this case with no test article present, vi=vo), whereas blank wells with no BTK were defined as having fractional activity=0. Fractional activity was plotted against test article concentration and the data were fit using Genedata Screener software (Genedata; Basel, Switzerland) to the tight-binding apparent inhibition constant (Ki^app) Morrison equation [Williams, J. W. and Morrison, J. F. (1979) The kinetics of reversible tight-binding inhibition. Methods Enzymol 63:437-67]. The following equation was used to calculate fractional activity and Ki^app:
[formula] where [E]T and [I]T are the total concentrations of active enzyme (fixed value of 0.001 μM=1 nM) and test article (e.g., inhibitor; the varied parameter), respectively.

Sequence of BTK (Q06187 whole entry): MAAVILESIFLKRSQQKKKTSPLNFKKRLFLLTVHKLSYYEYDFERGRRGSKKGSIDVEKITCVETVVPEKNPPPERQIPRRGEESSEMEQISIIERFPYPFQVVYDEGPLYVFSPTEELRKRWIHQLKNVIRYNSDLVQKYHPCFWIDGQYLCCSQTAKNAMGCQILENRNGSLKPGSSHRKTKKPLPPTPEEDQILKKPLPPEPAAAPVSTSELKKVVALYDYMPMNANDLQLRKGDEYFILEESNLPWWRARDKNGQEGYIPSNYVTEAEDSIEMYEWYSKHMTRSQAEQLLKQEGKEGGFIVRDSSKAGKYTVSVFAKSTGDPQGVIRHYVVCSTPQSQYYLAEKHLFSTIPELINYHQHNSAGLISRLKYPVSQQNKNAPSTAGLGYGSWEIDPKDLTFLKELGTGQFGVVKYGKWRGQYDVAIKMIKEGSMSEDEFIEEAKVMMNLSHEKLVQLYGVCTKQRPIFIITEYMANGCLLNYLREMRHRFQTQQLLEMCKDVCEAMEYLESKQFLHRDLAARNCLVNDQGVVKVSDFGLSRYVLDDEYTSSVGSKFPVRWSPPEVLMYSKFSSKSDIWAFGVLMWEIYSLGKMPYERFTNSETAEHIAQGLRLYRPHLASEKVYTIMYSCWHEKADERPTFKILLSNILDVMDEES

The term Ki denotes the dissociation constant of the complex between target and ligand, obtained from inhibition or displacement. Consider `C=CC(=O)NCCOc1cccc(Nc2cc(-c3ccnc(N4CCn5c(cc6c5CC(C)(C)C6)C4=O)c3CO)cn(C)c2=O)n1` [Compound 101, N-{2-[(6-{[5-(2-{4,4-dimethyl-9-oxo-1,10-diazatricyclo[6.4.0.0^2,6]dodeca-2(6),7-dien-10-yl}-3-(hydroxymethyl)pyridin-4-yl)-1-methyl-2-oxo-1,2-dihydropyridin-3-yl]amino}pyridin-2-yl)oxy]ethyl}prop-2-enamide], for which the Ki came out at 0.792 nM.

Take `Cn1cc(-c2ccnc(N3CCn4c(cc5c4CC(C)(C)C5)C3=O)c2CO)cc(Nc2ccnc(N3CCC(C(=O)NCC#N)C3)n2)c1=O` (stereo not shown) [Compound 102, N-(cyanomethyl)-1-(4-{[5-(2-{4,4-dimethyl-9-oxo-1,10-diazatricyclo[6.4.0.0^2,6]dodeca-2(6),7-dien-10-yl}-3-(hydroxymethyl)pyridin-4-yl)-1-methyl-2-oxo-1,2-dihydropyridin-3-yl]amino}pyrimidin-2-yl)pyrrolidine-3-carboxamide]: the Ki worked out at 0.864 nM.

Regarding `C=CC(=O)NCCOc1cccc(Nc2cc(-c3ccnc(-n4ncc5cc(C(C)(C)C)cc(F)c5c4=O)c3CO)cn(C)c2=O)n1` [Compound 104, N-[2-[[6-[[5-[2-(6-tert-butyl-8-fluoro-1-oxo-phthalazin-2-yl)-3-(hydroxymethyl)-4-pyridyl]-1-methyl-2-oxo-3-pyridyl]amino]-2-pyridyl]oxy]ethyl]prop-2-enamide], the inhibition constant Ki was found to be 0.915 nM.

For `C=CC(=O)NCCNc1cccc(Nc2cc(-c3cc(F)cc(-n4ncc5c6c(sc5c4=O)CCCC6)c3CO)cn(C)c2=O)n1` [Compound 105, N-[2-[[6-[[5-[5-fluoro-2-(hydroxymethyl)-3-(4-oxo-6,7,8,9-tetrahydrobenzothiopheno[2,3-d]pyridazin-3-yl)phenyl]-1-methyl-2-oxo-3-pyridyl]amino]-2-pyridyl]amino]ethyl]prop-2-enamide], the Ki worked out at 0.248 nM.

`CC#CC(=O)NCCOc1cccc(Nc2cc(-c3cc(F)cc(-n4ncc5c6c(sc5c4=O)CCCC6)c3CO)cn(C)c2=O)n1` [Compound 106, N-[2-[[6-[[5-[5-fluoro-2-(hydroxymethyl)-3-(4-oxo-6,7,8,9-tetrahydrobenzothiopheno[2,3-d]pyridazin-3-yl)phenyl]-1-methyl-2-oxo-3-pyridyl]amino]-2-pyridyl]oxy]ethyl]but-2-ynamide]: the Ki was determined as 0.306 nM.

`C=CC(=O)N[C@@H](C)COc1cccc(Nc2cc(-c3ccnc(N4CCn5c(cc6c5CC(C)(C)C6)C4=O)c3CO)cn(C)c2=O)n1` [Compound 107, N-[(1S)-2-[[6-[[5-[2-(7,7-dimethyl-4-oxo-1,2,6,8-tetrahydrocyclopenta[3,4]pyrrolo[3,5-b]pyrazin-3-yl)-3-(hydroxymethyl)-4-pyridyl]-1-methyl-2-oxo-3-pyridyl]amino]-2-pyridyl]oxy]-1-methyl-ethyl]prop-2-enamide]: the Ki was found to be 0.612 nM.

Consider `C=CC(=O)N[C@@H](C)COc1cccc(Nc2cc(-c3cc(F)cc(-n4ncc5c6c(sc5c4=O)CCCC6)c3CO)cn(C)c2=O)n1` [Compound 108, N-[(1S)-2-[[6-[[5-[5-fluoro-2-(hydroxymethyl)-3-(4-oxo-6,7,8,9-tetrahydrobenzothiopheno[2,3-d]pyridazin-3-yl)phenyl]-1-methyl-2-oxo-3-pyridyl]amino]-2-pyridyl]oxy]-1-methyl-ethyl]prop-2-enamide], for which the Ki was 2.57 nM.

Regarding `C=CC(=O)NCCN(C)c1cccc(Nc2cc(-c3cc(F)cc(-n4ncc5c6c(sc5c4=O)CCCC6)c3CO)cn(C)c2=O)n1` [Compound 111, N-[2-[[6-[[5-[5-fluoro-2-(hydroxymethyl)-3-(4-oxo-6,7,8,9-tetrahydrobenzothiopheno[2,3-d]pyridazin-3-yl)phenyl]-1-methyl-2-oxo-3-pyridyl]amino]-2-pyridyl]-methyl-amino]ethyl]prop-2-enamide], the inhibitory constant (Ki) was 0.494 nM.

Take `C=CC(=O)N(C)CCOc1cccc(Nc2cc(-c3ccnc(N4CCn5c(cc6c5CC(C)(C)C6)C4=O)c3CO)cn(C)c2=O)n1` [Compound 112, N-[2-[[6-[[5-[2-(7,7-dimethyl-4-oxo-1,2,6,8-tetrahydrocyclopenta[3,4]pyrrolo[3,5-b]pyrazin-3-yl)-3-(hydroxymethyl)-4-pyridyl]-1-methyl-2-oxo-3-pyridyl]amino]-2-pyridyl]oxy]ethyl]-N-methyl-prop-2-enamide]: the Ki was determined as 1.75 nM.

For `C=CC(=O)N(C)CCOc1cccc(Nc2cc(-c3cc(F)cc(-n4ncc5c6c(sc5c4=O)CCCC6)c3CO)cn(C)c2=O)n1` [Compound 113, N-[2-[[6-[[5-[5-fluoro-2-(hydroxymethyl)-3-(4-oxo-6,7,8,9-tetrahydrobenzothiopheno[2,3-d]pyridazin-3-yl)phenyl]-1-methyl-2-oxo-3-pyridyl]amino]-2-pyridyl]oxy]ethyl]-N-methyl-prop-2-enamide], the Ki stood at 0.146 nM.

Take `C=CC(=O)N[C@H]1CCCN(c2cccc(Nc3cc(-c4cc(F)cc(-n5ncc6c7c(sc6c5=O)CCCC7)c4CO)cn(C)c3=O)n2)C1` [Compound 115, N-[(3S)-1-[6-[[5-[5-fluoro-2-(hydroxymethyl)-3-(4-oxo-6,7,8,9-tetrahydrobenzothiopheno[2,3-d]pyridazin-3-yl)phenyl]-1-methyl-2-oxo-3-pyridyl]amino]-2-pyridyl]-3-piperidyl]prop-2-enamide]: the Ki turned out to be 2.16 nM.

On to `C=C(C#N)C(=O)NCCOc1cccc(Nc2cc(-c3cc(F)cc(-n4ncc5c6c(sc5c4=O)CCCC6)c3CO)cn(C)c2=O)n1` [Compound 117, 2-cyano-N-[2-[[6-[[5-[5-fluoro-2-(hydroxymethyl)-3-(4-oxo-6,7,8,9-tetrahydrobenzothiopheno[2,3-d]pyridazin-3-yl)phenyl]-1-methyl-2-oxo-3-pyridyl]amino]-2-pyridyl]oxy]ethyl]prop-2-enamide], for which the Ki came to 0.576 nM.

As to `CCC(=O)NCCOc1cccc(Nc2cc(-c3ccnc(N4CCn5c(cc6c5CC(C)(C)C6)C4=O)c3CO)cn(C)c2=O)n1` [Compound 119, N-{2-[(6-{[5-(2-{4,4-dimethyl-9-oxo-1,10-diazatricyclo[6.4.0.0^2,6]dodeca-2(6),7-dien-10-yl}-3-(hydroxymethyl)pyridin-4-yl)-1-methyl-2-oxo-1,2-dihydropyridin-3-yl]amino}pyridin-2-yl)oxy]ethyl}propanamide], the Ki worked out at 0.963 nM.
